According to patent publication US4097595A, “7-Amino-thiazolyl acetamido cephalosporanic acids” (Roussel Uclaf, priority 1976, dated 1978):
Converted amounts (≈) assume the structure as drawn. Where two headings read alike, the source gives them in different places.

Legend:
Format in all cases: cell-based
[1] = test system: Streptococcus faecalis 5 432; assay: MIC, dilution method in liquid media, Streptococcus faecalis 5 432; settings: read-out: MIC
Method: (§1) A series of tubes were prepared with the same quantity of sterile nutrive media and increasing quantities of the test product was distributed to each tube. Then, each tube was seeded with a bacterial strain and after incubation at 37° C for 24 or 48 hours, the inhibition of the growth was determined by transillumination which permitted determination of the minimum inhibitory concentrations (M.I.C.) in μg/ml.

[2] = test system: Proteus mirabilis (indol); assay: MIC, dilution method in liquid media, Proteus mirabilis (indol)
Method: as §1

[3] = test system: Streptococcus pyogenes A 561; assay: MIC, dilution method in liquid media, Streptococcus pyogenes A 561
Method: as §1

[4] = test system: Escherichia Coli UC 1 020; assay: MIC, dilution method in liquid media, Escherichia Coli UC 1 020; settings: read-out: MIC
Method: as §1

[5] = test system: Staphylococcus aureus ATCC 6 538; assay: MIC, dilution method in liquid media, Staphylococcus aureus ATCC 6 538
Method: as §1

[6] = test system: Bacillus subtilis ATCC 6 633; assay: MIC, dilution method in liquid media, Bacillus subtilis ATCC 6 633
Method: as §1

[7] = test system: Staphylococcus aureus 54 146; assay: MIC, dilution method in liquid media, Staphylococcus aureus 54 146
Method: as §1

[8] = test system: Escherichia Coli UC 1 261; assay: MIC, dilution method in liquid media, Escherichia Coli UC 1 261; settings: read-out: MIC
Method: as §1

[9] = test system: Staphylococcus aureus UC 1128 (penicillin resistant); assay: MIC, dilution method in liquid media, Staphylococcus aureus UC 1128, penicillin resistant
Method: as §1

[10] = test system: Escherichia Coli R 55 123 D; assay: MIC, dilution method in liquid media, Escherichia Coli R 55 123 D; settings: COLIR55123D, read-out: MIC
Method: as §1

[11] = test system: Salmonella Typhimurium; assay: MIC, dilution method in liquid media, Salmonella Typhimurium; settings: Salmonella enterica, strain 420 (Tables II, IV)
Method: as §1

[12] = test system: Staphylococcus aureus UC 1 061 (penicillin sensible); assay: MIC, dilution method in liquid media, Staphylococcus aureus UC 1061, penicillin sensible; settings: penicillin sensible
Method: as §1

[13] = test system: Klebsiella pneumoniae 52 145; assay: MIC, dilution method in liquid media, Klebsiella pneumoniae 52 145
Method: as §1

[14] = test system: Escherichia Coli (T) 0 26 B 6; assay: MIC, dilution method in liquid media, Escherichia Coli (T) 026 B6
Method: as §1

[15] = test system: Serratia RG 2 532; assay: MIC, dilution method in liquid media, Serratia RG 2 532
Method: as §1

[16] = test system: Streptococcus faecalis 99 F 74; assay: MIC, dilution method in liquid media, Streptococcus faecalis 99 F 74; settings: Enterococcus faecalis
Method: as §1

[17] = Staphylococcus aureus, 54146, 24 h, read-out: MIC

Nc1nc(CC(=O)NC2C(=O)N3C(C(=O)O)=C(CSC(=O)c4ccco4)CS[C@H]23)cs1 (stereo partly shown) [Example 5, 7-[2-(2-amino-4-thiazolyl)-acetamido]-3-[{(2-furyl)-carbonyl}thiomethyl]-ceph-3-eme-4-carboxylic acid]
MIC ([1]; Enterococcus faecalis, 5432, 24 h): 5 µg/mL (≈ 10.4 µM) | MIC ([1]; Enterococcus faecalis, 5432, 48 h): 40 µg/mL (≈ 83.2 µM) | MIC ([2]; 24 H, A 235, read-out: MIC): 2 µg/mL (≈ 4.16 µM) | MIC ([2]; 48 H, A 235, read-out: MIC): 2 µg/mL (≈ 4.16 µM) | MIC ([3]; A561, 24 h): 0.1 µg/mL (≈ 0.208 µM) | MIC ([3]; A561, 48 h): 0.1 µg/mL (≈ 0.208 µM) | MIC ([4]; UC1, 24 h): 10 µg/mL (≈ 20.8 µM) | MIC ([4]; UC1, 48 h): 10 µg/mL (≈ 20.8 µM) | MIC ([5]; ATCC6, 24 h, read-out: MIC): 0.5 µg/mL (≈ 1.04 µM) | MIC ([5]; ATCC6, 48 h, read-out: MIC): 1 µg/mL (≈ 2.08 µM) | MIC ([6]; ATCC6, 24 h): 0.2 µg/mL (≈ 0.416 µM) | MIC ([6]; ATCC6, 48 h): 0.2 µg/mL (≈ 0.416 µM) | MIC [7, 17]: 1 µg/mL (≈ 2.08 µM) | MIC ([7]; Staphylococcus aureus, 54146, 48 h, read-out: MIC): 1 µg/mL (≈ 2.08 µM) | MIC ([8]; UC1, 24 h): 2 µg/mL (≈ 4.16 µM) | MIC ([8]; UC1, 48 h): 2 µg/mL (≈ 4.16 µM) | MIC ([9]; UC1128, 24 H): 1 µg/mL (≈ 2.08 µM) | MIC ([9]; UC1128, 48 H): 2 µg/mL (≈ 4.16 µM) | MIC ([10]; 24 h): 10 µg/mL (≈ 20.8 µM) | MIC ([10]; 48 h): 10 µg/mL (≈ 20.8 µM) | MIC ([11]; 24 H): 10 µg/mL (≈ 20.8 µM) | MIC ([12]; UC1, 24 H): 0.5 µg/mL (≈ 1.04 µM) | MIC ([12]; UC1, 48 H): 1 µg/mL (≈ 2.08 µM) | MIC ([13]; Klebsiella pneumoniae, 52145, 24 h): 0.4 µg/mL (≈ 0.832 µM) | MIC ([13]; Klebsiella pneumoniae, 52145, 48 h, read-out: MIC): 1 µg/mL (≈ 2.08 µM) | MIC ([14]; 24 h): 10 µg/mL (≈ 20.8 µM) | MIC ([14]; 48 h): 10 µg/mL (≈ 20.8 µM)

CCC(=O)SCC1=C(C(=O)O)N2C(=O)C(NC(=O)Cc3csc(N)n3)[C@H]2SC1 (stereo partly shown) [Example 6, 7-[2-(2-amino-4-thiazolyl)-acetamido]-3-propionylthiomethyl-ceph-3-eme-4-carboxylic acid]
MIC ([2]; 24 H, A 235, read-out: MIC): 10 µg/mL (≈ 22.6 µM) | MIC ([2]; 48 h): 20 µg/mL (≈ 45.2 µM) | MIC ([3]; A561, 24 h): 0.2 µg/mL (≈ 0.452 µM) | MIC ([3]; A561, 48 h): 0.2 µg/mL (≈ 0.452 µM) | MIC ([4]; UC1, 24 h): 10 µg/mL (≈ 22.6 µM) | MIC ([4]; UC1, 48 h): 10 µg/mL (≈ 22.6 µM) | MIC ([5]; ATCC6, 24 h, read-out: MIC): 0.2 µg/mL (≈ 0.452 µM) | MIC ([5]; ATCC6, 48 h): 0.4 µg/mL (≈ 0.904 µM) | MIC ([6]; ATCC6, 24 h): 0.1 µg/mL (≈ 0.226 µM) | MIC ([6]; ATCC6, 48 h): 0.1 µg/mL (≈ 0.226 µM) | MIC [7, 17]: 1 µg/mL (≈ 2.26 µM) | MIC ([7]; Staphylococcus aureus, 54146, 48 h): 2 µg/mL (≈ 4.52 µM) | MIC ([8]; UC1, 24 h): 10 µg/mL (≈ 22.6 µM) | MIC ([8]; UC1, 48 h): 10 µg/mL (≈ 22.6 µM) | MIC ([9]; UC1128, 24 H): 1 µg/mL (≈ 2.26 µM) | MIC ([9]; UC1128, 48 H): 1 µg/mL (≈ 2.26 µM) | MIC ([11]; 24 H): 5 µg/mL (≈ 11.3 µM) | MIC ([11]; 48 H): 5 µg/mL (≈ 11.3 µM) | MIC ([15]; RG2532, 24 h): 10 µg/mL (≈ 22.6 µM) | MIC ([15]; RG2532, 48 h): 10 µg/mL (≈ 22.6 µM) | MIC ([12]; UC1, 24 H): 0.6 µg/mL (≈ 1.36 µM) | MIC ([12]; UC1, 48 H): 0.6 µg/mL (≈ 1.36 µM) | MIC ([13]; Klebsiella pneumoniae, 52145, 24 h, read-out: MIC): 3 µg/mL (≈ 6.78 µM) | MIC ([13]; Klebsiella pneumoniae, 52145, 48 h): 5 µg/mL (≈ 11.3 µM) | MIC ([16]; 99F74, 24 h): 20 µg/mL (≈ 45.2 µM) | MIC ([16]; 99F74, 48 h, read-out: MIC): 40 µg/mL (≈ 90.4 µM) | MIC ([14]; 24 h): 40 µg/mL (≈ 90.4 µM) | MIC ([14]; 48 h): 40 µg/mL (≈ 90.4 µM)
